Results: patent publication US4351948A, “Imidazole hydrazone derivatives” (priority 1980, dated 1982)
Read-outs that look alike come from different tables or passages of the source.

What was measured:
[1] = system: Desulfovibrio desulfuricans API-BREWER; experiment: Minimal inhibitory concentration against anaerobic bacteria; conditions: 24 h
candida = experiment: Intravenous administration: recovery of viable candida cells from the kidneys of infected mice; assay type: in vivo; conditions: 25 mg/ml
[2] = system: platelet thromboxane generation; experiment: Inhibition of platelet thromboxane generation (TxB2, collagen-stimulated human platelet rich plasma); assay type: cell-based; conditions: Homo sapiens, 10 min, read-out: Activity IC50 (50% inhibition of TxB2 generation)
Procedure: The compounds used according to the invention as anti-thrombotics were tested by the following method for their ability to inhibit platelet thromboxane generation.
Human venous blood was collected from healthy male donors, who had denied any medication in the previous 14 days. Nine volumes of blood were mixed with one volume of 3.24% trisodium citrate. The citrated blood was centrifuged at 160 g for 10 mins. at 22° C. to obtain platelet rich plasma (PRP). The platelets were then counted on a Coulter counter, and the platelet count was adjusted to 200,000 per μl with plasma.
The PRP was then dispensed as aliquots into micro-Eppendorf tubes, maintained at 37° C. in a dry bath. The compounds dissolved either in saline, ethanol, or DMSO were added in duplicate to the PRP aliquots to produce final concentrations of 0.3, 3 and 30 μg/ml. When ethanol and DMSO were used as the vehicle, triplicate controls containing the same percentage of vehicle as the test compounds were made. The final concentration or organic solvent was never more than 0.1%, which in previous experiments had no effect on TxB2 generation.
Following a 10 min. incubation with test compounds or vehicle, collagen was added to produce a final concentration of 8 μg/ml. The tubes were then whirly-mixed for 15 seconds and replaced in the dry bath for a further 10 minutes, controls received saline instead of collagen. The reaction was then stopped by rapid centrifugation, 15,000 g for 3 mins. The plasma was removed and frozen at -29° C. until assayed.
Briefly, 100 μl aliquots, in tricine buffered saline+0.8% gelatin (pH 8.0) of the following were incubated together for 1 hour at 37° C.: thromboxane Tx B2 (plasma extract, spiked plasma extract or standards 20 to 20,000 pg/ml), ^3 H--TxB2 (approximately 15,000 dpm) and anti-TxB2 antiserum (0.5 μg/100 μl). The free and protein bound ^3 H--TxB2 were separated by ammonium sulphate precipitation followed by centrifugation. 300 μl of the supernatant was added to an aqueous scintillation fluid, and the radioactivity present was counted in a liquid scintillation counter. The binding of ^3 H--TxB2 in the absence of added TxB2 was approximately 55%. The least amount of TxB2 to be detected accurately in the plasma was 0.08 ng/ml. Cross reactivity with other prostaglandins is less than 0.005% except PGD2 which is 1%.
Thus plasma samples were assayed to give a rough approximation of TxB2 content. The plasma was then appropriately diluted and assayed in duplicate to give accurate values.
The amount of TxB2 generated by the collagen was calculated by subtracting mean values obtained for the saline stimulated platelets from the mean values obtained from the collagen stimulated platelets. Then the amount of TxB2 generated in the presence of each concentration of compound was expressed as a % control and dose response curves were then constructed to determine the concentration of compound which produced a 50% inhibition.

candida albicans = experiment: Oral treatment: recovery of viable candida albicans from the kidneys of infected mice; assay type: in vivo
Description: Effect of oral treatment with HC274, HC316, HC390, HC415 and Ketoconazole on the recovery of viable candida albicans from the kidneys of infected mice.

C. albicans = experiment: Vaginal candida infection in rats, oral or topical treatment; assay type: in vivo
Description: Effect of oral or topical administration of HC274 and ketoconazole on vaginal candida infection in rats. Clearance of C. albicans from rat vagina following oral or topical treatment (as percentage of control).
Topical treatment: 1% solution in polyethylene glycol administrated twice daily for 3 days.
Oral treatment: Once daily for 3 days.

[3] = system: Desulfovibrio desulfuricans API-SW2; experiment: Minimal inhibitory concentration against anaerobic bacteria; conditions: for Minimal Inhibitory Concentration: 24 hours at 37° C.
B. fragilis ATCC 23745 = experiment: Antianaerobic activity, MIC by standard broth dilution method (Table II); assay type: cell-based; conditions: Bacteroides fragilis, ATCC23745, 24 h, read-out: Minimal Inhibitory Concentration (MIC)
Outline: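 MIC determined by standard broth dilution against single strains of the anaerobes and T. vaginalis.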

[4] = system: Bacteroides fragilis ATCC 23745; experiment: Minimal inhibitory concentration against anaerobic bacteria; conditions: ATCC23745, 24 h
in vivo = conditions: male mice, 7 day
[5] = system: Trichophyton mentagrophytes; experiment: Experimental Trichophyton mentagrophytes infection in guinea pigs; assay type: in vivo
Description: Effect of oral or topical administration of HC274, HC344, Clotrimazole, and Ketoconazole on experimental Trichophyton mentagrophytes infection in guinea pigs.
*Based on degree of hair loss, erythema, desquamation, Max. = 100
Treatments administered in Carbopol® gel, once daily days 5-10.

C. sporogenes ATCC 19404 = experiment: Antianaerobic activity, MIC by standard broth dilution method (Table II); assay type: cell-based; conditions: Clostridium sporogenes, ATCC19404, 24 h, read-out: Minimal Inhibitory Concentration (MIC)
Outline: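 Minimum inhibitory concentration determined by standard broth dilution against a single Clostridium sporogenes strain under anaerobic test conditions.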

[6] = read-out: Minimal Inhibitory Concentration, Test 1, 24 hours at 37° C.
[7] = read-out: Minimal Inhibitory Concentration, Test 2, 24 hours at 37° C.
[8] = read-out: Minimal Inhibitory Concentration, Test 3, 24 hours at 37° C.

Structure (SMILES): Cl.Clc1ccc(/C(Cn2ccnc2)=N\Nc2ccc(Cl)cc2Cl)cc1 [HC274, (E)-1-(4-chlorophenyl)-2-(1H-imidazol-1-yl)ethanone, 2,4-dichlorophenylhydrazone, hydrochloride]
- MIC [1, 6]: 0.75 µg/mL
- MIC [1, 7]: 1 µg/mL
- MIC [1, 8]: 0.5 µg/mL
- CFU/g kidney (candida): 7.7 × 10^3 CFU/g kidney
- CFU/g kidney, % of control (candida): 52 % of control
- IC50 [2]: 15.9 µM
- Recovery of C.albicans (as percentage of control) (candida albicans; 5 mg/kg): 84.2 percentage of control
- Recovery of C.albicans (as percentage of control) (candida albicans; 20 mg/kg): 47.8 percentage of control
- Clearance of C. albicans from rat vagina (as percentage of control) (C. albicans; oral, 10 mg/kg once daily for 3 days): 94.3 percentage of control
- Clearance of C. albicans from rat vagina (as percentage of control) (C. albicans; oral, 20 mg/kg once daily for 3 days): 91.3 percentage of control
- Clearance of C. albicans from rat vagina (as percentage of control) (C. albicans; topical, 1% solution in polyethylene glycol twice daily for 3 days): 95.5 percentage of control
- MIC ([3]; Desulfovibrio desulfuricans, APISW2, 24 h, read-out: Minimal Inhibitory Concentration): 1 µg/mL
- Minimal Inhibitory Concentration ([3]; Test 2): 1.0 mg/L
- Minimal Inhibitory Concentration ([3]; Test 3): 1.0 mg/L
- MIC (B. fragilis ATCC 23745; Test 1): 2.5 µg/mL
- MIC (B. fragilis ATCC 23745; Test 2): 5 µg/mL
- MIC (B. fragilis ATCC 23745; Test 3): 7.5 µg/mL
- MIC [4, 6]: 2.5 µg/mL
- MIC [4, 7]: 5 µg/mL
- MIC [4, 8]: 7.5 µg/mL
- LD50 at 168 h (in vivo; mouse, in vivo, iv, read-out: LD50): 85 mg/kg
- LD12.5 (in vivo; p.o.): 440 mg/kg
- Disease rating (degree of hair loss, erythema, desquamation, Max. = 100) ([5]; 40 mg/kg p.o., day 5 after infection): 100
- Disease rating (degree of hair loss, erythema, desquamation, Max. = 100) ([5]; 40 mg/kg p.o., day 10 after infection): 46.9
- Disease rating (degree of hair loss, erythema, desquamation, Max. = 100) ([5]; topical, 1% w/w in Carbopol gel once daily days 5-10, day 10 after infection): 35.4
- Disease rating (degree of hair loss, erythema, desquamation, Max. = 100) ([5]; topical, 1% w/w in Carbopol gel, day 5 after infection): 100
- MIC (C. sporogenes ATCC 19404; Test 1): 2.5 µg/mL
- MIC (C. sporogenes ATCC 19404; Test 2): 2.5 µg/mL
- MIC (C. sporogenes ATCC 19404; Test 3): 7.5 µg/mL
